Ends that are not written are not given here.
How the values were obtained:
collagen = target: T1, collagen (Bos taurus, UniProt P02453+P02465); assay: Fibrillogenesis turbidity assay (absorbance at 313 nm); assay type: biochemical; conditions: 4 mg/mL collagen, 10:1 collagen:treatment unless otherwise indicated
T1 construct: purchased Inamed, Freemont, Calif; Nutragen
Experimental: (§1) Gels were made with Nutragen collagen (Inamed, Freemont, Calif.) at a final concentration of 4 mg/mL collagen. Nutragen stock is 6.4 mg/mL in 10 mM HCl. Gel preparation was performed on ice, and fresh samples were made before each test. The collagen solution was adjusted to physiologic pH and salt concentration, by adding appropriate volumes of 10×PBS (phosphate buffered saline), 1×PBS, and 1M NaOH. For most experiments, samples of DS, decorin, DS-SILY, or DS-Dc13 were added at a 10:1 collagen:treatment molar ratio by a final 1×PBS addition (equal volumes across treatments) in which the test samples were dissolved at appropriate concentrations. In this way, samples are constantly kept at pH 7.4 and physiologic salt concentration. Collagen-alone samples received a 1×PBS addition with no sample dissolved. Fibrillogenesis will be induced by incubating neutralized collagen solutions at 37° C. overnight in a humidified chamber to avoid dehydration. Gel solutions with collagen:treatment molar ratios of other than 10:1 were prepared similarly.
Collagen fibrillogenesis was monitored by measuring turbidity related absorbance at 313 nm providing information on rate of fibrillogenesis and fibril diameter. Gel solutions were prepared as described in EXAMPLE 16 (4 mg/mL collagen, 10:1 collagen:treatment, unless otherwise indicated) and 50 uL/well were added at 4° C. to a 384-well plate. The plate was kept at 4° C. for 4 hours before initiating fibril formation. A SpectraMax M5 at 37° C. was used to measure absorbance at 313 nm at 30 s intervals for 6 hours.
A fibrillogenesis assay as described for DS-SILY, EXAMPLE 19, performed with the conjugate DS-Dc13.

collagen I = target: T2, collagen I (Bos taurus, UniProt P02453+P02465); assay: Cryo-SEM measurements on collagen I, fibril diameter; assay type: biochemical; conditions: 4 mg/mL collagen, 10:1 collagen:treatment, cryo-SEM 20,000×
T2 construct: purchased Inamed, Freemont, Calif; Nutragen
Experimental: as §1
Gels for cryo-SEM were formed, as in EXAMPLE 16, directly on the SEM stage and incubated at 37° C. overnight. The stages were then secured in a cryo-holder and plunged into liquid nitrogen slush. Samples were then transferred to a Gatan Alto 2500 pre-chamber cooled to −170° C. under vacuum. A free-break surface was created with a cooled scalpel, and each sample evaporated under sublimation conditions for 20 min. The sample was coated by platinum sputter coating for 120 s. Samples were transferred to the cryo-stage at −130° C. and regions with similar orientation were imaged for comparison across treatments. Analysis of the images was performed to determine the fibril diameter distribution, presented in histograms adjacent the corresponding image in FIG. 14, and average fibril diameter, FIG. 17 an 18;. Fibril diameter was calculated using ImageJ software (NIH) measuring individual fibrils by hand (drawing a line across fibrils and measuring its length after properly setting the scale). At least 45 independent fibril measurement were recorded for average fibril diameter calculations.

HCA SMCs = assay: Measurement of elastin (Fastin assay) in cell-seeded collagen gels; assay type: cell-based, human; conditions: gels cultured for 10 days
Experimental: Collagen gels seeded with HCA SMCs were prepared as described in EXAMPLE 30. Differentiation medium was changed every three days and gels were cultured for 10 days. Collagen gels containing no cells were used as a control. Gels were rinsed in 1×PBS overnight to remove serum protein, and gels were tested for elastin content using the Fastin elastin assay per manufacturers protocol (Biocolor, County […].). Briefly, gels were solubilized in 0.25 M oxalic acid by incubating at 100° C. for 1 hr. Elastin was precipitated and samples were then centrifuged at 11,000×g for 10 min. The solubilized collagen supernatant was removed and the elastin pellet was stained by Fastin Dye Reagent for 90 min at room temperature. Samples were centrifuged at 11,000×g for 10 min and unbound dye in the supernatant was removed. Dye from the elastin pellets was released by the Fastin Dye Dissociation Reagent, and 100 μL samples were transferred to a 96-well plate (Costar). Absorbance was measured at 513 nm, and elastin content was calculated from an α-elastin standard curve.

Long-Evans rats = assay: Rat incisional model, tensile testing of scar (scar strength); assay type: in vivo
Experimental: Using sterile techniques, longitudinal wounds were incised on shaved dorsal skin of the rats. A 4 cm incision was cut through the panniculus down to the skeletal musculature, and a 250 μL single dose of either 10 mg/mL hyaluronic acid (HA) or HA+DS-SILY was applied to the open wound by a syringe. DS-SILY was tested at 0.5, 1, and 2.5 mg/mL mixed with HA. The incision was then sutured closed and animals were returned to individual cages and monitored for complications. Negative control rats received no treatment and were treated identically. A pilot study was performed (n=3) at time points 3, 7, 10, 14, and 21 days, followed by a higher powered study (n=9) for 21 and 28 day time points.
At a predetermined time after surgery (3-28 days) the animals were euthanized. Photographs of the incision were obtained, and the dermal wound including a 1 inch area around the wound edge was excised and cut into 4mm wide strips using a custom cutting device with fixed blades. Relevant tissues were harvested for tensile strength testing and histologic study.
Based on these findings, a full powered (n=9 rats/treatment) was performed using the later time points 21-day and 28-day, and comparing the same low dose, but modifying the high dose to 0.25 mg DS-SILY. DS-SILY was delivered with HA in each study and the negative control received no treatment.
Following necropsy, 4 mm skin strips (n=4 per animal) were placed in 1×PBS and kept at 4° C. for up to 6 hours. The wound breaking strength was measured at time points from 3 to 21 days. Skin samples were loaded onto a mechanical testing system (Test Resources, mode:100P/Q) such that the incision was orthogonal to the grips. Samples were loaded under tension with a rate of 5 mm/min to failure. […] No differences were observed between the low and high peptidoglycan concentrations.

T1 sequence (P02453 162-1217 limits assumed): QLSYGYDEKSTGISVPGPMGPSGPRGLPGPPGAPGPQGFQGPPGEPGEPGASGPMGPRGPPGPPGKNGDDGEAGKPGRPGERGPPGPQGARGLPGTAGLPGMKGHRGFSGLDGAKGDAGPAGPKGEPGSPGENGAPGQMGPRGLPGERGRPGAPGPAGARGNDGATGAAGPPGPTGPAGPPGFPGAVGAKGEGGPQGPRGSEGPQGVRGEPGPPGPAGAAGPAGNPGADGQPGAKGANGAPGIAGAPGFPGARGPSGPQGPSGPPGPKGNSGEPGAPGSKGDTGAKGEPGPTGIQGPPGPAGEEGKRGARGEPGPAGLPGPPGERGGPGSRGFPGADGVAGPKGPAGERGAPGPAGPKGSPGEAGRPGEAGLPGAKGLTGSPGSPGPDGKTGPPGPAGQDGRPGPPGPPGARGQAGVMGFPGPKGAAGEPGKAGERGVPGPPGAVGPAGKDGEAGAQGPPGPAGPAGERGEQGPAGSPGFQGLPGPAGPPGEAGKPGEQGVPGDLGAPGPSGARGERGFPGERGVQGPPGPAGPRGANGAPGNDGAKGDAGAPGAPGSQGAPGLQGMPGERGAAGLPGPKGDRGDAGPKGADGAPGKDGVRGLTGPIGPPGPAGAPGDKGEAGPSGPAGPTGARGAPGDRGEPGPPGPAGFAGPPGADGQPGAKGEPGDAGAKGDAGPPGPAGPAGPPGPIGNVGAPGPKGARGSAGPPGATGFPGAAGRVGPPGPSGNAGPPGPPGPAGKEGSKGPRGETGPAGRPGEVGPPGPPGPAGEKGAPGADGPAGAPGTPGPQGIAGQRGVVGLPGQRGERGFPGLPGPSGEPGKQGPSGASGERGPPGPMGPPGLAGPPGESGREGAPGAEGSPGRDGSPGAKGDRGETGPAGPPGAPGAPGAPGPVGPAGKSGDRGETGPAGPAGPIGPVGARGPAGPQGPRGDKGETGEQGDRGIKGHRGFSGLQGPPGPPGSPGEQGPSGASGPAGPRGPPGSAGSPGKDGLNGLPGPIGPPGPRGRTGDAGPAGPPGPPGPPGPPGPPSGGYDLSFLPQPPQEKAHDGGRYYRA
T1 sequence (P02465 80-1117 limits assumed): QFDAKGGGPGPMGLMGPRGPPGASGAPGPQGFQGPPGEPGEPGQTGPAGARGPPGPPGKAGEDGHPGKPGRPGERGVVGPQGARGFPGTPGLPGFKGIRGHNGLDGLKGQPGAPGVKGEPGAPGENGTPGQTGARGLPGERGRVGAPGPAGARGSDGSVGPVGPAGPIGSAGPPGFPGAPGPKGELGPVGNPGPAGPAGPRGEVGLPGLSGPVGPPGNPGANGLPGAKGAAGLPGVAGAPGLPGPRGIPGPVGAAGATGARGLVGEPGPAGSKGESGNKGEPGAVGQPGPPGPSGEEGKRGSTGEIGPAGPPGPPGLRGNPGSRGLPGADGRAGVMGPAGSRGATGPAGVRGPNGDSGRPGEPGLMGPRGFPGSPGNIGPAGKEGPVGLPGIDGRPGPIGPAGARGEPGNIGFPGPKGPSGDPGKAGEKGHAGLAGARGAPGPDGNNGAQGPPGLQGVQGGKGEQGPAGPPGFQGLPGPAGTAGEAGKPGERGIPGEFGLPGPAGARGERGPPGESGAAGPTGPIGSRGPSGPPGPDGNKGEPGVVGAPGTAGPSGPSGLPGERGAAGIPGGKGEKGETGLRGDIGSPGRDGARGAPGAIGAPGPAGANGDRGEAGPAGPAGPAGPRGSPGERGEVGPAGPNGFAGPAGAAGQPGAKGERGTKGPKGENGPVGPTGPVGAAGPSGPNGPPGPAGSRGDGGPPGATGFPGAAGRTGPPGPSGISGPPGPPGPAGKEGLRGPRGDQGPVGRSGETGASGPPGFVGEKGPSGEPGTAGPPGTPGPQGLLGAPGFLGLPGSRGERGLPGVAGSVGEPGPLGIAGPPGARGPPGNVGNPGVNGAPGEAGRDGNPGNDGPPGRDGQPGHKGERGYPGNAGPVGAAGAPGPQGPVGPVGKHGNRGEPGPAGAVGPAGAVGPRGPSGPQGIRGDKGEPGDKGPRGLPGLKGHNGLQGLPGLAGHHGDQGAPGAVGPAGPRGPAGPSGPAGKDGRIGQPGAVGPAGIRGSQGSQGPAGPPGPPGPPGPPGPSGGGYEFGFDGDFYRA
T2 sequence (P02453 162-1217 limits assumed): as the sequence (P02453 162-1217 limits assumed) above
T2 sequence (P02465 80-1117 limits assumed): as the sequence (P02465 80-1117 limits assumed) above

Substance: DS-SILY: collagen-binding peptidoglycan in which a single SILY peptide was conjugated to dermatan sulfate via PDPH (RRANAALKAGELYKSILYGC; also: single peptide conjugated to dermatan sulfate via PDPH, site not given here)
- rate of fibrillogenesis (collagen): decrease the rate of fibrillogenesis
- average fibril diameter (collagen I): significant decrease in average fibril diameter
- elastin production (HCA SMCs): significantly increased elastin production over all samples
- wound breaking strength (Long-Evans rats; 21 days post-injury, vs untreated or HA treated wounds): significant increase in wound breaking strength when compared to untreated or HA treated wounds
- scar strength (Long-Evans rats; full powered study, 0.125 mg and 0.25 mg with HA, 21-days): increased scar strength over no treatment
- scar strength (Long-Evans rats; full powered study, 0.125 mg and 0.25 mg with HA, 28-days): significantly higher compared to the HA control, but was not different from no treatment
- scar strength (Long-Evans rats; pilot study, low (0.125 mg) and high (0.625 mg) dose delivered with HA, 21-days): significantly increases scar strength

From US20170283458A1, “COLLAGEN-BINDING SYNTHETIC PEPTIDOGLYCANS FOR WOUND HEALING” (Symic Biomedical, Inc., priority 2009, published 2017)
